Source: paper PMC7743948, “D-LL-31 enhances biofilm-eradicating effect of currently used antibiotics for chronic rhinosinusitis and its immunomodulatory activity on human lung epithelial cells” (PLoS ONE, 2020)
Square brackets hold non-standard residues; d marks the D form. Peptide text beside a SMILES is read from it.

Experiments:
S. epidermidis biofilm [1] = experiment: microbe, parasite or virus in culture
Description: (§1) The effects of both conventional antibiotics and AMPs against bacteria under biofilm-stimulating condition were determined using a transferable solid phase (TSP) pin lid, which resembles the ‘Calgary’ biofilm device as previously described with some modifications. Each strain (10^7 CFU/ml) was added to sterile 96-well plates (Nunclon™), then covered by a TSP pin lid (NUNC™, Roskilde, Denmark), and further incubated at 37 °C for 24 h. […] Additionally, the effect of TOB (2–836 μM or 1–391 μg/ml) against P. aeruginosa biofilm was also investigated. Then the plates were statically incubated at 37 °C for 24 h. A well free of antimicrobial agent was used as a control. After 24 h, bacterial survival was determined using the plate count technique on NA (Himedia®). The percentage killing of each antimicrobial agent was calculated using the formula [1 − (CFU sample/CFU control)] × 100% [15, 19]. […] Each experiment was performed independently three times in duplicate.

K. pneumoniae biofilm [2] = experiment: microbe, parasite or virus in culture; conditions: biofilm, 24 h
Description: as §1

P. aeruginosa biofilm [3] = experiment: microbe, parasite or virus in culture; conditions: biofilm, 24 h
Description: as §1

[4] = system: biofilm matrix of all tested strains; experiment: Biofilm matrix reduction (AAA-model, CLSM, COMSTAT biomass), statements for all tested strains; format: cell-based
Description: (§2) Briefly, 1.5 ml of each overnight culture (10^8 CFU/ml) was added to a 24-well tissue culture plate (Nunclon™). The plate was covered with a sterile stainless-steel lid containing glass coverslips and aerobically incubated at 37°C for 24 h. […] All tested conditions were incubated at 37°C for 24 h. A well free of antimicrobial agent was used as a control. Following incubation, biofilms were fixed with 2.5% glutaraldehyde (Sigma-Aldrich) at 25°C for 3 h. The fixed bacterial biofilms on glass coverslips were stained with 50 μg/ml Alexa Fluor® 488 (Invitrogen, Carlsbad, CA) for 30 min. This stain reacts with exopolysaccharide matrixes of the biofilm. The glass coverslips were then mounted with 80% glycerol and the stained cells were photographed using a confocal laser-scanning microscope (CLSM) (TCS SP8-Leica Microsystems, Wetzlar, Germany). […] Each experiment was performed independently three times in duplicate.

[5] = system: all tested isolates (K. pneumoniae, S. epidermidis, P. aeruginosa, P. aeruginosa ATCC 27853); experiment: Killing of planktonic bacteria (CFU count), statements for all tested isolates; format: cell-based; conditions: 1 μM, within 1 h, 5 x 10^5 CFU/ml, all tested strains
Description: A bacterial suspension without peptide served as a control. The samples were then serially diluted and cultivated on NA (Himedia®) and incubated for 24 h to allow colony counting. […] Each experiment was performed independently three times in duplicate.

[6] = system: A549 cells (human lung epithelial cells); conditions: 25 µM
Description: Briefly, A549 cells were maintained in RPMI-1640 (HyClone™, Marlborough, MA) with 10% fetal bovine serum (FBS) (HyClone™) and sub-cultured by standard methods using trypsin/EDTA (0.25% trypsin, 0.1% EDTA) (Corning™, Corning, NY). A standard curve of A549 cells (100–50000 cells/well) was constructed as previously described with some modification [43]. For MTT assay, cells were plated at a density of 2.5×10^4 cells/well in 96-well plates and grown overnight. […] Prepared A549 cells were then exposed to the diluted peptides for 24 h at 37°C, 5% CO2 atmosphere. Negative controls received either culture medium or PPB. Cells with 2% dimethyl sulfoxide (DMSO) (Sigma-Aldrich) were used as positive control. Cytotoxicity was assessed using MTT (0.5 mg/ml) according to the manufacturer's instructions (Sigma-Aldrich). Absorbance was measured at a wavelength of 570 nm with background subtraction at 630–690 nm. Then absorbance values from the MTT were converted to cells/well using a standard curve. Cell viabilities were calculated using the formula; [mean of cells in treated well]/[mean of cells in control well] × 100%. Each experiment was performed independently three times in triplicate.

[7] = system: hRBCs (human red blood cells); conditions: cited from earlier work
all bacteria in biofilm = experiment: Killing of bacteria grown as biofilm (TSP pin lid), statements for all bacteria; format: cell-based
Description: as §1

P. aeruginosa biofilm [8] = experiment: Checkerboard synergy of D-LL-31 with antibiotics on biofilm; format: cell-based, Pseudomonas aeruginosa; conditions: IC50 alone compared with concentration of combination
Description: (§3) Bacterial viability in each interaction was determined using the plate count technique. The fractional inhibitory concentration index (FICI) values were calculated and interpreted in terms of synergism/antagonism as previously described. Each experiment was performed independently three times in duplicate.

K. pneumoniae biofilm [9] = experiment: as above; format: cell-based, Klebsiella pneumoniae; conditions: D-LL-31 combined with AMX; IC50 alone compared with concentration of combination
Description: as §3

[10] = system: A549 human lung epithelial cells; experiment: Cytokine antibody array of culture supernatant; format: cell-based; conditions: 10 μM, 24 h
Description: The immunomodulatory effect of D-LL-31 on A549 human lung epithelial cells was investigated using cytokine antibody arrays. […] Cells in medium without peptide were used as a control. After incubation, the secreted cytokines in culture supernatant were detected using a human angiogenesis antibody array kit (AAH-ANG-1000-4, Norcross, GA) according to the manufacturer's instructions. […] Each experiment was performed independently two times in duplicate.

[11] = system: P. aeruginosa biofilm matrix; experiment: Biofilm matrix reduction (AAA-model, CLSM, COMSTAT biomass); format: cell-based, Pseudomonas aeruginosa; conditions: combination of D-LL-31 (0.5 μM) and TOB (0.2 μM), 24 h
Description: as §2

S. epidermidis biofilm [12] = experiment: Checkerboard synergy of D-LL-31 with antibiotics on biofilm; format: cell-based, Staphylococcus epidermidis; conditions: D-LL-31 combined with AMX; IC50 alone compared with concentration of combination
Description: as §3

**Q.** For `CC[C@@H](C)[C@@H](NC(=O)[C@@H](CCCCN)NC(=O)[C@@H](CCC(=O)O)NC(=O)[C@@H](CCCCN)NC(=O)[C@@H](CO)NC(=O)[C@@H](CCCCN)NC(=O)[C@@H](CCCNC(=N)N)NC(=O)[C@@H](Cc1ccccc1)NC(=O)[C@@H](Cc1ccccc1)NC(=O)[C@@H](CC(=O)O)NC(=O)CNC(=O)[C@@H](CC(C)C)NC(=O)[C@H](N)CC(C)C)C(=O)NCC(=O)N[C@H](CCCCN)C(=O)N[C@H](CCC(=O)O)C(=O)N[C@H](Cc1ccccc1)C(=O)N[C@H](CCCCN)C(=O)N[C@H](CCCNC(=N)N)C(=O)N[C@@H](C(=O)N[C@@H](C(=O)N[C@H](CCC(N)=O)C(=O)N[C@H](CCCNC(=N)N)C(=O)N[C@@H](C(=O)N[C@H](CCCCN)C(=O)N[C@H](CC(=O)O)C(=O)N[C@H](Cc1ccccc1)C(=O)N[C@H](CC(C)C)C(=O)N[C@H](CCCNC(=N)N)C(=O)N[C@H](CC(N)=O)C(=O)N[C@H](CC(C)C)C(=O)O)[C@H](C)CC)C(C)C)[C@H](C)CC` [D-LL-31] (H-[dL][dL]G[dD][dF][dF][dR][dK][dS][dK][dE][dK][dI]G[dK][dE][dF][dK][dR][dI][dV][dQ][dR][dI][dK][dD][dF][dL][dR][dN][dL]-OH; N-terminus and C-terminus assumed), which “killing activity compared with all tested peptides” value (S. epidermidis biofilm [1]; 1.56–25 μM, P < 0.05, one-way ANOVA) is on record?
**A.** Its value is “significantly higher”.

**Q.** What about the IC50 (S. epidermidis biofilm [1]; biofilm, 24 h) of the same compound?
**A.** The IC50 was 500 nM.

**Q.** And the IC50 (K. pneumoniae biofilm [2])?
**A.** The IC50 was 600 nM.

**Q.** What about the IC50 (P. aeruginosa biofilm [3]) of the same compound?
**A.** Its IC50 is 4 µM.

**Q.** What about the “biofilm biomass relative to controls” value ([4]; D-LL-31 in combination with antibiotics, 24 h, P < 0.001) of the same compound?
**A.** The value was “Significant decreases”.

**Q.** And the “biofilm biomass relative to controls” value ([4]; D-LL-31 treatment alone at IC50, 24 h, P < 0.01)?
**A.** The value was “Significant decreases”.

**Q.** And the “biofilm matrix relative to controls” value ([4]; combination of D-LL-31 with AMX, 24 h, all tested strains)?
**A.** Its value is “distinct decrease”.

**Q.** And the “killing of bacterial cells, in words” value [5]?
**A.** Its value is “completely killed”.

**Q.** What about the viable cells [6] of the same compound?
**A.** Its viable cells is “more than 80%”.

**Q.** And the hemolytic activity [7]?
**A.** Its hemolytic activity is “less than 1%”.

**Q.** What about the IC50 (all bacteria in biofilm; 24 h biofilm, 24 h, read-out: IC50 values, range over all bacteria in biofilm) of the same compound?
**A.** The IC50 was 500 to 4000 nM.

**Q.** And the “IC70 values, range” value (all bacteria in biofilm; D-LL-31 alone and in combination with antibiotics, biofilm-stimulating condition)?
**A.** Its value is 0.8 to 8.7 µM.

**Q.** What about the IC90 (all bacteria in biofilm; bacteria grown as biofilm, read-out: IC90 values, range) of the same compound?
**A.** Its IC90 is 1 to 25 µM.

**Q.** And the “Fold decrease of IC50 values” (P. aeruginosa biofilm [8]; D-LL-31 combined with AMX)?
**A.** The value was 16 fold.

**Q.** What about the “Fold decrease of IC50 values” (P. aeruginosa biofilm [8]; D-LL-31 combined with TOB) of the same compound?
**A.** The value was 8 fold.

**Q.** What about the “Fold decrease of IC50 values” (K. pneumoniae biofilm [9]) of the same compound?
**A.** Its value is 8 fold.

**Q.** And the “expression of IFN-γ” value [10]?
**A.** Its value is “not found”.

**Q.** What about the “expression of IL-6” value [10] of the same compound?
**A.** The value was “did not induce”.

**Q.** And the “levels of IL-4, IL-8, TNF-α and GRO-a, b and g” value [10]?
**A.** The value was “no significant change”.

**Q.** And the “ENA-78 secretion relative to controls” value ([10]; P < 0.05)?
**A.** Its value is “significantly secreted”.

**Q.** What about the “TIMP-2 in culture supernatant” value ([10]; P < 0.05) of the same compound?
**A.** The value was “significantly elevated”.

**Q.** And the “biofilm matrix relative to controls” value [11]?
**A.** Its value is “statistically significant reduction”.

**Q.** And the “Fold decrease of IC50 values” (S. epidermidis biofilm [12])?
**A.** The value was 16 fold.
